Results published in PubChem BioAssay (NCI).
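These data come from cells grown in 96-well plates and exposed to compound for 48 hours at five concentrations. GI50 = concentration required for 50% inhibition of growth. The concentration for full growth arrest is given as TGI.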

Assays:
Test in all cases: NCI-60 cell line screen, 48 h
ACHN renal = tested on: ACHN renal
SK-MEL-28 melanoma = tested on: SK-MEL-28 melanoma
RPMI-8226 leukemia = tested on: RPMI-8226 leukemia
HL-60(TB) leukemia = tested on: HL-60(TB) leukemia
HOP-62 NSCLC = tested on: HOP-62 NSCLC
IGROV1 ovarian = tested on: IGROV1 ovarian
HOP-92 NSCLC = tested on: HOP-92 NSCLC
OVCAR-3 ovarian = tested on: OVCAR-3 ovarian
NCI/ADR-RES ovarian = tested on: NCI/ADR-RES ovarian
SF-539 CNS = tested on: SF-539 CNS
CAKI-1 renal = tested on: CAKI-1 renal
MALME-3M melanoma = tested on: MALME-3M melanoma
SK-OV-3 ovarian = tested on: SK-OV-3 ovarian
K-562 leukemia = tested on: K-562 leukemia
SN12C renal = tested on: SN12C renal
UACC-62 melanoma = tested on: UACC-62 melanoma
MDA-MB-231 breast = tested on: MDA-MB-231 breast
T-47D breast = tested on: T-47D breast
EKVX NSCLC = tested on: EKVX NSCLC
MCF7 breast = tested on: MCF7 breast
MOLT-4 leukemia = tested on: MOLT-4 leukemia
PC-3 prostate = tested on: PC-3 prostate
UO-31 renal = tested on: UO-31 renal
COLO 205 colon = tested on: COLO 205 colon
HCT-116 colon = tested on: HCT-116 colon
M14 melanoma = tested on: M14 melanoma
NCI-H226 lung = tested on: NCI-H226 lung
SK-MEL-2 melanoma = tested on: SK-MEL-2 melanoma
A498 renal = tested on: A498 renal

In the case of `COc1cc(/C=N/Nc2ncnc3[nH]ncc23)ccc1O`, the GI50 (ACHN renal) is reported as 8.01 µM, the TGI (ACHN renal) is reported as > 25 µM and the GI50 (SK-MEL-28 melanoma) is reported as > 20.1 µM. For the same compound, the TGI (SK-MEL-28 melanoma) was > 25 µM, the GI50 (RPMI-8226 leukemia) was > 25 µM and the TGI (RPMI-8226 leukemia) was > 25 µM. For the same compound, the GI50 (HL-60(TB) leukemia) was > 23.6 µM, the TGI (HL-60(TB) leukemia) was > 25 µM and the GI50 (HOP-62 NSCLC) was 19.8 µM. The TGI (HOP-62 NSCLC) was > 25 µM, the GI50 (IGROV1 ovarian) was 8.97 µM and the TGI (IGROV1 ovarian) was > 25 µM. For the same compound, the GI50 (HOP-92 NSCLC) was 6.77 µM, the TGI (HOP-92 NSCLC) was > 22.1 µM and the GI50 (OVCAR-3 ovarian) was > 22.7 µM. The TGI (OVCAR-3 ovarian) was > 25 µM, the GI50 (NCI/ADR-RES ovarian) was > 25 µM and the TGI (NCI/ADR-RES ovarian) was > 25 µM. For the same compound, the GI50 (SF-539 CNS) was 7.78 µM, the TGI (SF-539 CNS) was > 21.8 µM and the GI50 (CAKI-1 renal) was 6.93 µM. For the same compound, the TGI (CAKI-1 renal) was > 25 µM, the GI50 (MALME-3M melanoma) was 11.7 µM and the TGI (MALME-3M melanoma) was > 25 µM. For the same compound, the GI50 (SK-OV-3 ovarian) was 17.9 µM, the TGI (SK-OV-3 ovarian) was > 25 µM and the GI50 (K-562 leukemia) was 9.94 µM. For the same compound, the TGI (K-562 leukemia) was > 25 µM, the GI50 (SN12C renal) was 13.6 µM and the TGI (SN12C renal) was > 25 µM. The GI50 (UACC-62 melanoma) was 11.3 µM, the TGI (UACC-62 melanoma) was > 25 µM and the GI50 (MDA-MB-231 breast) was > 20.1 µM. For the same compound, the TGI (MDA-MB-231 breast) was > 25 µM, the GI50 (T-47D breast) was 6.82 µM and the TGI (T-47D breast) was > 25 µM. For the same compound, the GI50 (EKVX NSCLC) was > 23.2 µM, the TGI (EKVX NSCLC) was > 25 µM and the GI50 (MCF7 breast) was 11.4 µM. For the same compound, the TGI (MCF7 breast) was > 25 µM, the GI50 (MOLT-4 leukemia) was 12.4 µM and the TGI (MOLT-4 leukemia) was > 25 µM. For the same compound, the GI50 (PC-3 prostate) was > 20.6 µM, the TGI (PC-3 prostate) was > 25 µM and the GI50 (UO-31 renal) was 5.96 µM. The TGI (UO-31 renal) was > 25 µM, the GI50 (COLO 205 colon) was > 25 µM and the TGI (COLO 205 colon) was > 25 µM. For the same compound, the GI50 (HCT-116 colon) was 19.6 µM, the TGI (HCT-116 colon) was > 25 µM and the GI50 (M14 melanoma) was 15.7 µM. The TGI (M14 melanoma) was > 25 µM, the GI50 (NCI-H226 lung) was > 25 µM and the TGI (NCI-H226 lung) was > 25 µM. For the same compound, the GI50 (SK-MEL-2 melanoma) was 6.53 µM, the TGI (SK-MEL-2 melanoma) was 17.1 µM and the GI50 (A498 renal) was 8.93 µM. For the same compound, the TGI (A498 renal) was > 25 µM.
